Source: patent publication US8993561B2, “Nitrobenzothiazole derivatives, preparation thereof and therapeutic applications thereof” (Sanofi, priority 2010, dated 2015)
≈ marks a conversion by molar mass, not a printed value.

system: not given; experiment: not given; details: not given

| SMILES | melting point [°C] |
| --- | --- |
| O=C(NCCc1ccc(Cl)cc1)c1nc2cc(C(F)(F)F)cc([N+](=O)[O-])c2s1 | 140 |
| O=C(NCCC1CCOCC1)c1nc2cc(C(F)(F)F)cc([N+](=O)[O-])c2s1 [Compound 2, 7-nitro-N-[2-(tetrahydro-2H-pyran-4-yl)ethyl]-5-(trifluoromethyl)-1,3-benzothiazole-2-carboxamide] | 154 |

system: Mycobacterium tuberculosis H37Rv strain; experiment: Alamar blue (MABA) test, MIC on Mycobacterium tuberculosis H37Rv; assay type: cell-based; details: H37RV, read-out: fluorimetric MIC (minimum inhibitory concentration) with respect to the growth of Mycobacterium tuberculosis

| SMILES | MIC [µM] |
| --- | --- |
| O=C(NCCc1cccc(Cl)c1)c1nc2cc(C(F)(F)F)cc([N+](=O)[O-])c2s1 [Compound 16, N-[2-(3-chlorophenyl)-ethyl]-7-nitro-5-(trifluoromethyl)-1,3-benzothiazole-2-carboxamide] | < 0.5 |
| O=C(NCCc1ccccc1O)c1nc2cc(C(F)(F)F)cc([N+](=O)[O-])c2s1 [Compound 17, N-[2-(2-hydroxyphenyl)ethyl]-7-nitro-5-(trifluoromethyl)-1,3-benzothiazole-2-carboxamide] | < 0.5 |
| O=C(NCCc1ccc(O)cc1)c1nc2cc(C(F)(F)F)cc([N+](=O)[O-])c2s1 [Compound 18, N-[2-(4-hydroxyphenyl)ethyl]-7-nitro-5-(trifluoromethyl)-1,3-benzothiazole-2-carboxamide] | < 0.5 |
| O=C(NCCc1nc2ccccc2o1)c1nc2cc(C(F)(F)F)cc([N+](=O)[O-])c2s1 [Compound 38, N-[2-(1,3-benzoxazol-2-yl)ethyl]-7-nitro-5-(trifluoromethyl)-1,3-benzothiazole-2-carboxamide] | < 0.5 |

same assay, conditions: in vitro, Alamar blue (MABA), H37Rv strain, fluorescence reading, read-out: fluorimetric MIC (minimum inhibitory concentration) with respect to the growth of Mycobacterium tuberculosis

| SMILES | MIC [µM] |
| --- | --- |
| O=C(NCCC1CCOCC1)c1nc2cc(C(F)(F)F)cc([N+](=O)[O-])c2s1 [Compound 2, 7-nitro-N-[2-(tetrahydro-2H-pyran-4-yl)ethyl]-5-(trifluoromethyl)-1,3-benzothiazole-2-carboxamide] | < 0.5 |
| COc1ccc(CCNC(=O)c2nc3cc(C(F)(F)F)cc([N+](=O)[O-])c3s2)cc1 [Compound 7, N-[2-(4-methoxyphenyl)ethyl]-7-nitro-5-(trifluoromethyl)-1,3-benzothiazole-2-carboxamide] | < 0.5 |
| O=C(NCCN1CCc2ccccc2C1)c1nc2cc(C(F)(F)F)cc([N+](=O)[O-])c2s1 [Compound 9, N-[2-(1,2,3,4-tetrahydroisoquinolin-2(1H)-yl)ethyl]-7-nitro-5-(trifluoromethyl)-1,3-benzothiazole-2-carboxamide] | < 0.5 |
| O=C(NCCc1ccc(F)cc1)c1nc2cc(C(F)(F)F)cc([N+](=O)[O-])c2s1 [Compound 14, N-[2-(4-fluorophenyl)ethyl]-7-nitro-5-(trifluoromethyl)-1,3-benzothiazole-2-carboxamide] | < 0.5 |
| COc1ccc(CCNC(=O)c2nc3cc(C(F)(F)F)cc([N+](=O)[O-])c3s2)cc1OC [Compound 15, N-[2-(3,4-dimethoxyphenyl)ethyl]-7-nitro-5-(trifluoromethyl)-1,3-benzothiazole-2-carboxamide] | < 0.5 |
| O=C(NCCNc1ccccn1)c1nc2cc(C(F)(F)F)cc([N+](=O)[O-])c2s1 [Compound 21, 7-nitro-N-[2-(pyridin-2-ylamino)ethyl]-5-(trifluoromethyl)-1,3-benzothiazole-2-carboxamide] | < 0.5 |
| O=C(NCCN1CCSCC1)c1nc2cc(C(F)(F)F)cc([N+](=O)[O-])c2s1 [Compound 22, 7-nitro-N-[2-thiomorpholin-4-ylethyl)-5-(trifluoromethyl)-1,3-benzothiazole-2-carboxamide] | < 0.5 |
| Cc1cccnc1CCNC(=O)c1nc2cc(C(F)(F)F)cc([N+](=O)[O-])c2s1 [Compound 25, N-[2-(3-methylpyridin-2-yl)ethyl]-7-nitro-5-(trifluoromethyl)-1,3-benzothiazole-2-carboxamide] | < 0.5 |
| O=C(NCC(c1ccccc1)N1CCOCC1)c1nc2cc(C(F)(F)F)cc([N+](=O)[O-])c2s1 (stereo not drawn) [Compound 26, N-(2-morpholin-4-yl-2-phenylethyl)-7-nitro-5-(trifluoromethyl)-1,3-benzothiazole-2-carboxamide] | < 0.5 |
| CC1(C)CC(CCNC(=O)c2nc3cc(C(F)(F)F)cc([N+](=O)[O-])c3s2)(c2ccccc2)CCO1 (stereo not drawn) [Compound 27, N-[2-(2,2-dimethyl-4-phenyltetrahydro-2H-pyran-4-yl)ethyl]-7-nitro-5-(trifluoromethyl)-1,3-benzothiazole-2-carboxamide] | < 0.5 |
| Cc1nc(CCNC(=O)c2nc3cc(C(F)(F)F)cc([N+](=O)[O-])c3s2)sc1Cl [Compound 36, N-[2-(5-chloro-4-methyl-1,3-thiazol-2-yl)ethyl]-7-nitro-5-(trifluoromethyl)-1,3-benzothiazole-2-carboxamide] | < 0.5 |
| CCc1csc(CCNC(=O)c2nc3cc(C(F)(F)F)cc([N+](=O)[O-])c3s2)n1 [Compound 39, N-[2-(4-ethyl-1,3-thiazol-2-yl)ethyl]-7-nitro-5-(trifluoromethyl)-1,3-benzothiazole-2-carboxamide] | < 0.5 |
| Cc1nc(CCNC(=O)c2nc3cc(C(F)(F)F)cc([N+](=O)[O-])c3s2)sc1C [Compound 40, N-[2-(4,5-dimethyl-1,3-thiazol-2-yl)ethyl]-7-nitro-5-(trifluoromethyl)-1,3-benzothiazole-2-carboxamide] | < 0.5 |
| NNC(=O)c1ccncc1 [isoniazid, reference compound] | 0.36 (≈ 0.0494 µg/mL) |
| CO[C@H]1/C=C/O[C@@]2(C)Oc3c(C)c(O)c4c(O)c(c(/C=N/N5CCN(C)CC5)c(O)c4c3C2=O)NC(=O)/C(C)=C\C=C\[C@H](C)[C@H](O)[C@@H](C)[C@@H](O)[C@@H](C)[C@H](OC(C)=O)[C@@H]1C [rifampicin, reference compound] | 0.12 (≈ 0.0988 µg/mL) |
